Experimental data as given in patent US10519145B2, “Pyrazole-oxazolidinone compound for anti-hepatitis B virus” (Shanghai Zhimeng Biopharma Co., Ltd., priority 2016, dated 2019).

Test system: HBV (HepG2.2.15 cells)
Assay: Anti-HBV activity experiment in vitro (HepG2.2.15, HBV DNA in supernatant, qPCR)
Format: cell-based
Settings: Hepatitis B virus, HBV DNA in supernatant by qPCR, eighth day
Description: Compound Dilution: initial concentrations of all compounds used in the anti-HBV activity experiments in vitro were 1 μM, 3-fold diluted into 8 concentrations; initial concentrations of all compounds used in the cytotoxicity assay were 100 μM, 3-fold diluted into 8 concentrations; and the mother liquor of the compound was diluted with DMSO.
Anti-HBV Activity Experiment In Vitro: HepG2.2.15 cells (4×10^4 cells/well) were seeded in 96-well plates and cultured overnight at 37° C. in 5% CO2. The next day, fresh cultures containing compounds in different concentrations were added into the culture wells. On the fifth day, the old culture medium in the culture wells was aspirated and removed. Fresh medium containing compounds in different concentrations was added. On the eighth day, supernatants in the culture wells were collected and used to extract HBV DNA in the supernatant. qPCR assay was used to detect HBV DNA content in the HepG2.2.15 supernatant.
The data analysis and the percentage of inhibition calculation: the percentage of inhibition was calculated by using the following formula: Inhibition %=[(HBV amount in DMSO control−HBV amount in sample)/HBV amount in DMSO control]×100%.

First: O=C1COC(c2cn(-c3ccc(Br)cc3)nc2-c2ccc(F)cc2)N1CCc1c(F)cc2[nH]c(=O)[nH]c2c1F (centres unmarked) [example 11, 2-(1-(4-bromophenyl)-3-(4-fluorophenyl)1H-pyrazol-4-yl)-3-(2-(4,6-difluoro-2-carbonyl-2,3-dihydro-1H-benzo[d]imidazol-5-yl)ethyl)oxazoline-4-one]
Second: O=C1CO[C@H](c2cn(-c3ccc(Br)cc3)nc2-c2ccc(F)cc2)N1CCc1cc2[nH]c(=O)[nH]c2cc1F [example 8 R isomer, (R)-2-(1-(4-bromophenyl)-3-(4-fluorophenyl)1H-pyrazol-4-yl)-3-(2-(6-fluoro-2-carbonyl-2,3-dihydro-1H-benzo[d]imidazol-5-yl)ethyl)oxazoline-4-one]
The EC50 of the first is 6.5-fold higher: 101 nM for the first, 15.5 nM for the second. The second is the more potent here.

Going from `O=C1COC(c2cn(-c3ccc(Br)cc3)nc2-c2ccc(F)cc2)N1CCc1ccc2[nH]c(=O)sc2c1` (centres unmarked) [example 18, 2-(1-(4-bromophenyl)-3-(4-fluorophenyl)-1H-pyrazol-4-yl)-3-(2-(2-carbonyl-2,3-dihydrobenzo[d]thiazol-6-yl)ethyl)-4-carbonyl-oxazoline] to `O=C1COC(c2cn(-c3ccc(Br)cc3)nc2-c2ccc(F)cc2)N1CCc1ccc2sc(=O)[nH]c2c1` (centres unmarked) [example 19, 2-(1-(4-bromophenyl)-3-(4-fluorophenyl)-1H-pyrazol-4-yl)-3-(2-(2-oxo-2,3-dihydrobenzo[d]thiazol-5-yl)ethyl)oxazoline-4-one], the EC50 rises from 60.4 nM to 162 nM (2.7-fold). The first is the more potent here.

Compared with `O=C1COC(c2cn(-c3ccc(Br)cc3)nc2-c2ccco2)N1CCc1ccc2[nH]c(=O)[nH]c2c1` (centres unmarked) [example 22, 2-(1-(4-bromophenyl)-3-(furan-2-yl)-1H-pyrazol-4-yl)-3-(2-(2-oxo-2,3-dihydro-1H-benzo[d]imidazol-5-yl)ethyl)oxazolidin-4-one], `O=C1CO[C@@H](c2cn(-c3ccc(Br)cc3)nc2-c2ccoc2)N1CCc1ccc2[nH]c(=O)[nH]c2c1` [example 21 S isomer, (S)-2-(1-(4-bromophenyl)-3-(furan-3-yl)-1H-pyrazol-4-yl)-3-(2-(2-oxo-2,3-dihydro-1H-benzo[d]imidazol-5-yl)ethyl)oxazolidin-4-one] is higher in EC50: 85.3 nM for the first, greater than 1000 nM for the second.

First: O=C1CO[C@H](c2cn(-c3ccc(F)cc3)nc2-c2ccc(F)cc2)N1CCc1ccc2[nH]c(=O)[nH]c2c1 [example 15 R isomer, (R)-3-(2-(2-oxo-2,3-dihydro-1H-benzo[d]imidazol-5-yl)ethyl)-2-(1-(4-fluorophenyl)-3-(4-fluorophenyl)-1H-pyrazol-4-yl)-oxazolidin-4-one]
Second: O=C1CO[C@@H](c2cn(-c3ccc(F)cc3)nc2-c2ccc(F)cc2)N1CCc1ccc2[nH]c(=O)[nH]c2c1 [example 15 S isomer, (S)-3-(2-(2-oxo-2,3-dihydro-1H-benzo[d]imidazol-5-yl)ethyl)-2-(1-(4-fluorophenyl)-3-(4-fluorophenyl)-1H-pyrazol-4-yl)-oxazolidin-4-one]
The EC50 of the first is lower: 44.5 nM for the first, greater than 1000 nM for the second. The first is the more potent here.

`O=C1COC(c2cn(-c3ccc(Br)cc3)nc2-c2ccc(F)cc2)N1CCc1ccc2c(c1)C(F)(F)C(=O)N2` (centres unmarked) [example 14] and `O=C1Cc2cc(CCN3C(=O)CO[C@H]3c3cn(-c4ccc(Br)cc4)nc3-c3ccc(F)cc3)ccc2N1` [example 13 S isomer] cannot be ordered by EC50: greater than 1000 nM for the first, greater than 1000 nM for the second.

First: COC(=O)Nc1nc2cc(CCN3C(=O)COC3c3cn(-c4ccc(Br)cc4)nc3-c3ccc(F)cc3)ccc2[nH]1 (centres unmarked) [example 23, Methyl (5-(2-(2-(I -(4-bromophenyl)-3-(4-fluorophenyl)-1H-pyrazol-4-yl)oxazoline-4-one-3-yl)ethyl)-1H-benzo[d]imidazol-2-yl)carbamate]
Second: O=C1COC(c2cn(-c3ccc(Br)cc3)nc2-c2ccc(F)cc2)N1CCc1ccc2[nH]nnc2c1 (centres unmarked) [example 2, 3-(2-(1H-benzo[d][1,2,3]triazol-5-yl)ethyl)-2-(1-(4-bromophenyl)-3-(4-fluoropheny 1)-1H-pyrazol-4-yl)oxazoline-4-one]
The EC50 of the first is 1.8-fold higher: 127 nM for the first, 68.8 nM for the second.

Compared with `O=C1CO[C@@H](c2cn(-c3ccc(Br)cc3)nc2-c2ccc(F)cc2)N1CCc1cc2[nH]c(=O)[nH]c2cc1F` [example 8 S isomer, (S)-2-(1-(4-bromophenyl)-3-(4-fluorophenyl)1H-pyrazol-4-yl)-3-(2-(6-fluoro-2-carbonyl-2,3-dihydro-1H-benzo[d]imidazol-5-yl)ethyl)oxazoline-4-one], `O=C1COC(c2cn(-c3ccc(Br)cc3)nc2-c2ccc(F)cc2)N1CCc1cc2[nH]c(=O)[nH]c2cc1F` (racemic) [example 8 racemate, 2-(1-(4-bromophenyl)-3-(4-fluorophenyl)11/-pyrazol-4-yl)-3-(2-(6-fluoro-2-carbonyl-2,3-dihydro-1H-benzo[d]imidazol-5-yl)ethyl)oxazoline-4-one] is lower in EC50: greater than 1000 nM for the first, 35.5 nM for the second. The second is the more potent here.

First: O=C1CO[C@@H](c2cn(-c3ccc(Br)cc3)nc2-c2ccc(F)cc2)N1CCc1ccc2[nH]c(=O)[nH]c2c1 [example 3 S isomer, (S)-3-(2-(2-oxo-2,3-dihydro-1H-benzo[d]imidazol-5-yl)ethyl)-2-(1-(4-bromophenyl)-3-(4-fluorophenyl)-1H-pyrazol-4-yl)-oxazolidin-4-one]
Second: O=C1COC(c2cn(-c3ccc(Br)cc3)nc2-c2ccc(F)cc2)N1CCc1ccc2[nH]c(=S)[nH]c2c1 (centres unmarked) [example 5, 2-(1-(4-bromophenyl)-3-(4-fluorophenyl)-1H-pyrazol-4-yl)-3-(2-(2,3-dihydro-2-thio-1H-benzo[d]imidazol-5-yl)ethyl)oxazoline-4-one]
The EC50 of the first is higher: greater than 1000 nM for the first, 45.7 nM for the second.

Going from `O=C1COC(c2cn(-c3ccc(Br)cc3)nc2-c2ccc(F)cc2)N1CCc1c(F)cc2[nH]nnc2c1F` (centres unmarked) [example 12, 2-(1-(4-bromophcnyl)-3-(4-fluorophenyl)-1H-pyrazol-4-yl)-3-(2-(5,7-difluoro-1H hydrogen-benzor[d][1,2,3]triazol-6-yl)ethyl)oxazoline-4-one] to `O=C1COC(c2cn(-c3ccc(Br)cc3)nc2-c2ccc(F)cc2)N1CCc1c(F)cc2[nH]cnc2c1F` (centres unmarked) [example 10, 2-(1-(4-bromophenyl)-3-(4-fluorophenyl)1H-pyrazol-4-yl)-3-(2-(5,7-difluoro-1H-benzo[d]imidazol-6-yl)ethyl)oxazoline-4-one], the EC50 falls from 223 nM to 134 nM (1.7-fold).

Going from `O=C1COC(c2cn(-c3ccc(Br)cc3)nc2-c2ccc(F)cc2)N1CCc1cc2nc[nH]c2cc1F` (centres unmarked) [example 7, 2-(1-(4-bromophenyl)-3-(4-fluorophenyl)1H-pyrazol-4-yl)-3-(2-(5-fluoro-1H-benzo[d]imidazol-6-yl)ethyl)oxazoline-4-one] to `O=C1COC(c2cn(-c3ccc(Br)cc3)nc2-c2ccc(F)cc2)N1CCc1cc2nn[nH]c2cc1F` (centres unmarked) [example 9, 3-(2-(5-fluoro-1H-benzo[d][1,2,3]triazol-6-yl)ethyl)-2-(1-(4-bromophenyl)-3-(4-fluorophenyl)-1H-pyrazol-4-yl)oxazoline-4-one], the EC50 rises from 67.5 nM to 234 nM (3.5-fold).

Compared with `Nc1ccc(CCN2C(=O)COC2c2cn(-c3ccc(Br)cc3)nc2-c2ccc(F)cc2)cc1` (centres unmarked) [example 1 intermediate], `O=C1COC(c2cn(-c3ccc(Br)cc3)nc2-c2ccc(F)cc2)N1CCc1ccc2[nH]cnc2c1` (centres unmarked) [example 1, 3-(2-(1H-benzo[d]imidazol-5-yl)ethyl)-2-(1-(4-bromophenyl)-3-(4-fluorophenyl)-1 H-pyrazol-4-yl)oxazoline-4-one] is 4.3-fold higher in EC50: 11.8 nM for the first, 50.3 nM for the second. The first is the more potent here.

First: O=C1COC(c2cn(-c3ccc(Br)cc3)nc2-c2ccoc2)N1CCc1ccc2[nH]c(=O)[nH]c2c1 (racemic) [example 21 racemate, 2-(1-(4-bromophenyl)-3-(furan-3-yl)-1H-pyrazol-4-yl)-3-(2-(2-oxo-2,3-dihydro-1H-benzo[d]imidazol-5-yl)ethyl)oxazolidin-4-one]
Second: O=C1CO[C@H](c2cn(-c3ccc(Br)cc3)nc2-c2ccoc2)N1CCc1ccc2[nH]c(=O)[nH]c2c1 [example 21 R isomer, (R)-2-(1-(4-bromophenyl)-3-(furan-3-yl)-1H-pyrazol-4-yl)-3-(2-(2-oxo-2,3-dihydro-1H-benzo[d]imidazol-5-yl)ethyl)oxazolidin-4-one]
The EC50 of the first is 2.8-fold higher: 30.6 nM for the first, 11 nM for the second. The second is the more potent here.

First: N=c1[nH]c2ccc(CCN3C(=O)COC3c3cn(-c4ccc(Br)cc4)nc3-c3ccc(F)cc3)cc2[nH]1 (centres unmarked) [example 4, 3-(2-(2-amino-1H-benzo[d]imidazol-6-yl)ethyl)-2-(1-(4-bromophenyl)-3-(4-fluorophenyl)-1H-pyrazol-4-yl)oxazoline-4-one]
Second: O=C1COC(c2cn(-c3ccc(Br)cc3)nc2-c2ccc(F)cc2)N1CCc1ccc2[nH]c(=O)oc2c1 (centres unmarked) [example 16, 6-(2-{2-[1-(4-bromo-phenyl)-3-(4-fluoro-phenyl)-1-hydro-pyrazol-4-yl]-4-carbonyl-oxazoline-3-yl}-ethyl)-3-hydro-2-carbonyl-benzoxazole]
The EC50 of the first is higher: greater than 1000 nM for the first, 80.3 nM for the second. The second is the more potent here.

First: O=C1Cc2cc(CCN3C(=O)CO[C@@H]3c3cn(-c4ccc(Br)cc4)nc3-c3ccc(F)cc3)ccc2N1 [example 13 R isomer]
Second: O=C1COC(c2cn(-c3ccc(Br)cc3)nc2-c2ccc(F)cc2)N1CCc1ccc2oc(=O)[nH]c2c1 (centres unmarked) [example 17]
The EC50 of the first is 10-fold lower: 14.4 nM for the first, 150 nM for the second.

`O=C1COC(c2cn(-c3ccc(Br)cc3)nc2-c2ccsc2)N1CCc1ccc2[nH]c(=O)[nH]c2c1` (centres unmarked) [example 20, 2-(1-(4-bromophenyl)-3-(thiophene-3-yl)-1H-pyrazol-4-yl)-3-(2-(2-oxo-2,3-dihydro-1H-benzo[d]imidazol-5-yl)ethyl)oxazolidin-4-one] was tested, and the EC50 was 20.9 nM.
